# From patent US12343326B2, “Psychoactive medicines and their use for treating psychiatric and neurological conditions and disorders” (Transcend Therapeutics, Inc., priority 2021, dated 2025)
# Assays:
# Assay in all cases: β-arrestin based GPCR screen (PathHunter / GPCRmax), agonist mode
# Format in all cases: cell-based
# Design in all cases: host or cells: PathHunter cell lines
# 168 GPCRs [1] = biological target: 168 GPCRs (Homo sapiens, UniProt O95977)
# Description: (§1) For agonist determination, cells were incubated with sample to induce response. […] Vehicle concentration was 1%.
# 168 GPCRs [2] = biological target: 168 GPCRs (Homo sapiens, UniProt P08588); settings: ADRB1, Agonist
# Sequence of 168 GPCRs (Homo sapiens, UniProt P08588) (P08588 whole entry): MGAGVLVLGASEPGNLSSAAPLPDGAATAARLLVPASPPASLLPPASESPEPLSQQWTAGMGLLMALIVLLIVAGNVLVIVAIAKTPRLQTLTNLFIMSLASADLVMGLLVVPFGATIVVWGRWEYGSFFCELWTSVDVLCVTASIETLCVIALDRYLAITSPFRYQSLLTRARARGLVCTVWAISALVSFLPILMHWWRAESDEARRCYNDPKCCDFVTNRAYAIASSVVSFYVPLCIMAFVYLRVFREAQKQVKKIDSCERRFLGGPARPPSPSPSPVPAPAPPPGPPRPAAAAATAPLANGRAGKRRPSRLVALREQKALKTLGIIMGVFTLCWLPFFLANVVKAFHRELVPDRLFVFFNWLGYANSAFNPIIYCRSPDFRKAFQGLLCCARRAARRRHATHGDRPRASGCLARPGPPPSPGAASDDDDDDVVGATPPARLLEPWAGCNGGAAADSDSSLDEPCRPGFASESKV
# Description: as §1
# 168 GPCRs [3] = biological target: 168 GPCRs (Homo sapiens, UniProt P25101); settings: EDNRA
# Description: as §1
# 168 GPCRs [4] = biological target: 168 GPCRs (Homo sapiens, UniProt P25106)
# Sequence of 168 GPCRs (Homo sapiens, UniProt P25106) (P25106 whole entry): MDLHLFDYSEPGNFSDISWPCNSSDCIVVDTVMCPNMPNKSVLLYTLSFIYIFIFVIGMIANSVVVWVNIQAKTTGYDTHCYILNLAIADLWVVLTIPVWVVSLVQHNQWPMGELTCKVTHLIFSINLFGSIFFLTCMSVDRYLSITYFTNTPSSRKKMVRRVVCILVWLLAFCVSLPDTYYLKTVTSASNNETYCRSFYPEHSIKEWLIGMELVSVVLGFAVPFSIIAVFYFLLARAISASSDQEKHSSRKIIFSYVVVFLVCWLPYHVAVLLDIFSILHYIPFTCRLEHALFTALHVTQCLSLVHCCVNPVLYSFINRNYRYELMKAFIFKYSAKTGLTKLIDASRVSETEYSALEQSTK
# Description: as §1
# 168 GPCRs [5] = biological target: 168 GPCRs (Homo sapiens, UniProt P28336); settings: NMBR
# Sequence of 168 GPCRs (Homo sapiens, UniProt P28336) (P28336 whole entry): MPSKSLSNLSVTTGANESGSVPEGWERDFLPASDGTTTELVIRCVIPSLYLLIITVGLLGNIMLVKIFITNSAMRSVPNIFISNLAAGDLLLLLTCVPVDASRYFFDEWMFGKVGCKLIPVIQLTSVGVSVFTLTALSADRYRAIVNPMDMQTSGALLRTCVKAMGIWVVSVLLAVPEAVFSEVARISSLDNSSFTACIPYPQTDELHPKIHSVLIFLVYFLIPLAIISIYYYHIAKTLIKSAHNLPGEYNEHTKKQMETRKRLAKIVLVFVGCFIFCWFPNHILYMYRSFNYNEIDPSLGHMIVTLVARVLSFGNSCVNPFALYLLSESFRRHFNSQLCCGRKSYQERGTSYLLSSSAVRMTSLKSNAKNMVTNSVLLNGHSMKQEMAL
# Description: as §1
# 168 GPCRs [6] = biological target: 168 GPCRs (Homo sapiens, UniProt P28566); settings: HTR1E
# Description: as §1
# 168 GPCRs [7] = biological target: T1, 168 GPCRs (Homo sapiens, UniProt P30939); settings: HTR1F
# T1 sequence (P30939 1-366): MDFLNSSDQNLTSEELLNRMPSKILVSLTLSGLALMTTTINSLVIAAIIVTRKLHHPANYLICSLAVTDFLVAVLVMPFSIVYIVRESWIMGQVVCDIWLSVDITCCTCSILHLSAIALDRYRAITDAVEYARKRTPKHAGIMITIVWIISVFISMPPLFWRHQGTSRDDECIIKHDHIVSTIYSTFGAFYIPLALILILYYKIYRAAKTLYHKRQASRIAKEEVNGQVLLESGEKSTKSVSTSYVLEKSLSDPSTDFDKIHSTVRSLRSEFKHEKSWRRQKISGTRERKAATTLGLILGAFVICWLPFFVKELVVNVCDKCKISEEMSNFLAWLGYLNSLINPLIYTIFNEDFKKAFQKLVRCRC
# Description: as §1
# 168 GPCRs [8] = biological target: 168 GPCRs (Homo sapiens, UniProt P32302)
# Sequence of 168 GPCRs (Homo sapiens, UniProt P32302) (P32302 whole entry): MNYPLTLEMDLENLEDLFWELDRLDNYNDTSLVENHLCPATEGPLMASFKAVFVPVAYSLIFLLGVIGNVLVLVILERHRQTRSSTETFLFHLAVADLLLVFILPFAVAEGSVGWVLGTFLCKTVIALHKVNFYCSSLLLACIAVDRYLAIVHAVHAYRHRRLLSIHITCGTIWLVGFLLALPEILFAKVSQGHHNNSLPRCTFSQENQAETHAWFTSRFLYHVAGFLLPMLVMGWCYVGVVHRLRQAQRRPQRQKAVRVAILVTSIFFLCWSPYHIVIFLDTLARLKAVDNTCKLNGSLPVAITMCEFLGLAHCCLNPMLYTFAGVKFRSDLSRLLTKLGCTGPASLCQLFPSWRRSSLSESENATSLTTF
# Description: as §1
# 168 GPCRs [9] = biological target: 168 GPCRs (Homo sapiens, UniProt P35408)
# Sequence of 168 GPCRs (Homo sapiens, UniProt P35408) (P35408 whole entry): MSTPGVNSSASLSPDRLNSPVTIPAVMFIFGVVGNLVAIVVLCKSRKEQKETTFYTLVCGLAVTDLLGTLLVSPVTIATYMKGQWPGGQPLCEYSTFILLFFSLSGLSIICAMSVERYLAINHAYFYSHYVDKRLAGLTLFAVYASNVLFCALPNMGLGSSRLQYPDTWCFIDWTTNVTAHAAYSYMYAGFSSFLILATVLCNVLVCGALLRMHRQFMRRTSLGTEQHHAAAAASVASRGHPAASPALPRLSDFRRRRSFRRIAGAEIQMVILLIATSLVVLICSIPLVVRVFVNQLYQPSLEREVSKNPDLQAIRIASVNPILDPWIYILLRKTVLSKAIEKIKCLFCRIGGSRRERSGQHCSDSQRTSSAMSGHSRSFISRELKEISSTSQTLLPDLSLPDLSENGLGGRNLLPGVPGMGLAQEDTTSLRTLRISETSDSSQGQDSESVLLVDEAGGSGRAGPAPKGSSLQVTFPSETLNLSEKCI
# Description: as §1
# 168 GPCRs [10] = biological target: 168 GPCRs (Homo sapiens, UniProt P37288); settings: AVPR1A, Agonist
# Description: as §1
# 168 GPCRs [11] = biological target: 168 GPCRs (Homo sapiens, UniProt P43115)
# Sequence of 168 GPCRs (Homo sapiens, UniProt P43115) (P43115 whole entry): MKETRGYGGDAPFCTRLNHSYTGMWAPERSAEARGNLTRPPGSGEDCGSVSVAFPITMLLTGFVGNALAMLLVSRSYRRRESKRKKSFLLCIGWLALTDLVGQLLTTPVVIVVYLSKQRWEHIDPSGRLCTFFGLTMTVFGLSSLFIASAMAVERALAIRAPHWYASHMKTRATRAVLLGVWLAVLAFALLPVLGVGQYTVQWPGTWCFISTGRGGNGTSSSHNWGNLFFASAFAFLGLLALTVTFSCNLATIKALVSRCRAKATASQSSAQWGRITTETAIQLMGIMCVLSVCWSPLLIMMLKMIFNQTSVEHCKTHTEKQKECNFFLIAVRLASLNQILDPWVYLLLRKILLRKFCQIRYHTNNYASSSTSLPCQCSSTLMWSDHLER
# Description: as §1
# 168 GPCRs [12] = biological target: 168 GPCRs (Homo sapiens, UniProt P47872); settings: SCTR
# Sequence of 168 GPCRs (Homo sapiens, UniProt P47872) (P47872 23-440): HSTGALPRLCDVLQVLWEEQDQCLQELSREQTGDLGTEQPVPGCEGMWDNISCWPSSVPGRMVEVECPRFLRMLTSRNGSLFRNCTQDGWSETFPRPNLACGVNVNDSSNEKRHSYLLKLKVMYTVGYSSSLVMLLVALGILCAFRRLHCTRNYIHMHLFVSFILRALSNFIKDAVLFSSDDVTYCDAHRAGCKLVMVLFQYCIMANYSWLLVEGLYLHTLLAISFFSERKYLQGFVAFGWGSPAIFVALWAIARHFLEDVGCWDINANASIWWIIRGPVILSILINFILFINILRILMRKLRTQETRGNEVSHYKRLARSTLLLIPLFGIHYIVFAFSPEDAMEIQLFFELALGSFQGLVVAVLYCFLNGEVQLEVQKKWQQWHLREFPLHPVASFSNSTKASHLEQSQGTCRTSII
# Description: as §1
# 168 GPCRs [13] = biological target: 168 GPCRs (Homo sapiens, UniProt P48145)
# Sequence of 168 GPCRs (Homo sapiens, UniProt P48145) (P48145 whole entry): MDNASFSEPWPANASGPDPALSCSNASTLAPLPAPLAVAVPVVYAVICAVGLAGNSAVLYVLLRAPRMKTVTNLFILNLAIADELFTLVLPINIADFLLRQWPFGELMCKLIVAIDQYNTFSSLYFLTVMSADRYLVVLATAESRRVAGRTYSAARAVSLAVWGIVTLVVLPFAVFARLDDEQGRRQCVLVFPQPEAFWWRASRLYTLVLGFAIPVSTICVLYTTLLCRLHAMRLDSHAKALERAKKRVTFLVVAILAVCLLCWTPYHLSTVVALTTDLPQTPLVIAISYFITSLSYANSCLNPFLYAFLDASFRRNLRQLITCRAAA
# Description: as §1
# 168 GPCRs [14] = biological target: 168 GPCRs (Homo sapiens, UniProt P51582)
# Sequence of 168 GPCRs (Homo sapiens, UniProt P51582) (P51582 whole entry): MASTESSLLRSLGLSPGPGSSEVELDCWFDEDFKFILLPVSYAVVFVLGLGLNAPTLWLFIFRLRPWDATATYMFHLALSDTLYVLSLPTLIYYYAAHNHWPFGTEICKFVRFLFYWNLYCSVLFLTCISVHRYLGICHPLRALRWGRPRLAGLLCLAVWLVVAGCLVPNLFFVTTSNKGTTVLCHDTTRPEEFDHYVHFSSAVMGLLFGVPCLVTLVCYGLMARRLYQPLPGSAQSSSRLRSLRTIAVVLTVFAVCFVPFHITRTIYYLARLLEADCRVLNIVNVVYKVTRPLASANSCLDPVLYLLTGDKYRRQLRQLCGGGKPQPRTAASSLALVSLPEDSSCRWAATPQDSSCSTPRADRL
# Description: as §1
# 168 GPCRs [15] = biological target: 168 GPCRs (Homo sapiens, UniProt P51685); settings: CCR8, Agonist
# Sequence of 168 GPCRs (Homo sapiens, UniProt P51685) (P51685 whole entry): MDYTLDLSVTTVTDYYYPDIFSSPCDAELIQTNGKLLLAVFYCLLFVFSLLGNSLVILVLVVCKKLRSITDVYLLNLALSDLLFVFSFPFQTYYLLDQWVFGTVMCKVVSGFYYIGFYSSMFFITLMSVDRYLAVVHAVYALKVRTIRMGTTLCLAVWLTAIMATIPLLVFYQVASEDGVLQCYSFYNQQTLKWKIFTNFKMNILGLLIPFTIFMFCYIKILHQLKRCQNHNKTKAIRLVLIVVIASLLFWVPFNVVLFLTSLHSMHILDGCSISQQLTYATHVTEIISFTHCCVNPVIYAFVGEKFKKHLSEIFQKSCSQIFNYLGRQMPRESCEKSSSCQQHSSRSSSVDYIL
# Description: as §1
# 168 GPCRs [16] = biological target: 168 GPCRs (Homo sapiens, UniProt Q15077)
# Description: as §1
# 168 GPCRs [17] = biological target: 168 GPCRs (Homo sapiens, UniProt Q99500)
# Sequence of 168 GPCRs (Homo sapiens, UniProt Q99500) (Q99500 whole entry): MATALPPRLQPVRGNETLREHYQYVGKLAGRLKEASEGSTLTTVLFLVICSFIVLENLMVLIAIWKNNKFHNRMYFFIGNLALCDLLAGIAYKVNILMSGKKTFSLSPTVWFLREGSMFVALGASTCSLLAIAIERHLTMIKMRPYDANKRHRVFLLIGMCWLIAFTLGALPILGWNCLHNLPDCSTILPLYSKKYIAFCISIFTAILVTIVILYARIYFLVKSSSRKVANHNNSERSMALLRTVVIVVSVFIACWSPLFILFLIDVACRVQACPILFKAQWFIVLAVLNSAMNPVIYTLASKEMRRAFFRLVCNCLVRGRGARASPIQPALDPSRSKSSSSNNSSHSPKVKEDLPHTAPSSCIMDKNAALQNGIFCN
# Description: as §1
# 168 GPCRs [18] = biological target: T2, 168 GPCRs (Homo sapiens, UniProt Q9Y5Y4)
# T2 sequence (Q9Y5Y4 1-395): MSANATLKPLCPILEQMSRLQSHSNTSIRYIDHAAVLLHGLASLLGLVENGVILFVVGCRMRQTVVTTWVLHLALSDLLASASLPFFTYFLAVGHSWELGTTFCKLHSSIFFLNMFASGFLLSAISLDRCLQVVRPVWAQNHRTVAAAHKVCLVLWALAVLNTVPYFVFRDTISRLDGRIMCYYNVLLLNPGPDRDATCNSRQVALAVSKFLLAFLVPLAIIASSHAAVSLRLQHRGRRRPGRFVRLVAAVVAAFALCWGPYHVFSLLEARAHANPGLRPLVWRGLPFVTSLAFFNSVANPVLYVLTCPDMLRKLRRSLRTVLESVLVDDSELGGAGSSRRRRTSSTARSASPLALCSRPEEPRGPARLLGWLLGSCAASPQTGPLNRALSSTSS
# Description: as §1
# Sequence of 168 GPCRs (Homo sapiens, UniProt O95977) (O95977 whole entry): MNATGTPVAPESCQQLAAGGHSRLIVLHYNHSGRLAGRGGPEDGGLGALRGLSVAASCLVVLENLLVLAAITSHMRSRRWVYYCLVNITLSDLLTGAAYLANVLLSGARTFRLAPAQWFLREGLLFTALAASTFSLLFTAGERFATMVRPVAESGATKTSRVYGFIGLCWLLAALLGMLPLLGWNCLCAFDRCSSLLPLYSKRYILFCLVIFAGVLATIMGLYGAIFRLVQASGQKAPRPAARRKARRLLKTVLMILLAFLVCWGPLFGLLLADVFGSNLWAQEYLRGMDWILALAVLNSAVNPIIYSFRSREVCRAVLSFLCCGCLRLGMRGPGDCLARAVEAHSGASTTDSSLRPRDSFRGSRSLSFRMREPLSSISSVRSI
smiles,measurement,setting,value
"CNC(C)C(=O)c1ccc2c(c1)OCO2 (stereo not drawn) [methylone, 3,4-methylenedioxy-N-methylcathinone]",activity at 10 µM,"168 GPCRs [1]; EDG6, Agonist mode, 10 uM",0.3%
same,activity at 1 µM,"168 GPCRs [1]; EDG6, Agonist, 1 uM",-1.7%
same,activity at 1 µM,168 GPCRs [2]; 1 uM,-1.7%
same,activity at 10 µM,168 GPCRs [2]; 10 uM,-1.4%
same,activity at 10 µM,"168 GPCRs [3]; Agonist mode, 10 uM",1.4%
same,activity at 1 µM,"168 GPCRs [3]; Agonist, 1 uM",0.3%
same,activity at 10 µM,"168 GPCRs [4]; CXCR7, Agonist mode, 10 uM",-0.8%
same,activity at 1 µM,"168 GPCRs [4]; CXCR7, Agonist, 1 uM",-1.3%
same,activity at 10 µM,"168 GPCRs [5]; Agonist mode, 10 uM",1.2%
same,activity at 1 µM,"168 GPCRs [5]; Agonist, 1 uM",1.1%
same,activity at 10 µM,"168 GPCRs [6]; Agonist mode, 10 uM",0.2%
same,activity at 1 µM,"168 GPCRs [6]; Agonist, 1 uM",-3.5%
same,activity at 10 µM,"168 GPCRs [7]; Agonist mode, 10 uM",-3%
same,activity at 1 µM,"168 GPCRs [7]; Agonist, 1 uM",-4.4%
same,activity at 10 µM,"168 GPCRs [8]; CXCR5, Agonist mode, 10 uM",1.4%
same,activity at 1 µM,"168 GPCRs [8]; CXCR5, Agonist, 1 uM",2.5%
same,activity at 10 µM,"168 GPCRs [9]; PTGER4, Agonist mode, 10 uM",-1.4%
same,activity at 1 µM,"168 GPCRs [9]; PTGER4, Agonist, 1 uM",-2.8%
same,activity at 1 µM,168 GPCRs [10]; 1 uM,-0.6%
same,activity at 10 µM,168 GPCRs [10]; 10 uM,-0.5%
same,activity at 10 µM,"168 GPCRs [11]; PTGER3, Agonist mode, 10 uM",1.9%
same,activity at 1 µM,"168 GPCRs [11]; PTGER3, Agonist, 1 uM",4.5%
same,activity at 10 µM,"168 GPCRs [12]; Agonist mode, 10 uM",-1.4%
same,activity at 1 µM,"168 GPCRs [12]; Agonist, 1 uM",-2.6%
same,activity at 10 µM,"168 GPCRs [13]; NPBWR1, Agonist mode, 10 uM",-1.9%
same,activity at 1 µM,"168 GPCRs [13]; NPBWR1, Agonist, 1 uM",1.6%
same,activity at 10 µM,"168 GPCRs [14]; P2RY4, Agonist mode, 10 uM",4.1%
same,activity at 1 µM,"168 GPCRs [14]; P2RY4, Agonist, 1 uM",-3.3%
same,activity at 1 µM,168 GPCRs [15]; 1 uM,-0.2%
same,activity at 10 µM,168 GPCRs [15]; 10 uM,-0.6%
same,activity at 10 µM,"168 GPCRs [16]; P2RY6, Agonist mode, 10 uM",2.4%
same,activity at 1 µM,"168 GPCRs [16]; P2RY6, Agonist, 1 uM",4.5%
same,activity at 10 µM,"168 GPCRs [17]; EDG3, Agonist mode, 10 uM",-8.6%
same,activity at 1 µM,"168 GPCRs [17]; EDG3, Agonist, 1 uM",-9.4%
same,activity at 10 µM,"168 GPCRs [18]; CRTH2, Agonist mode, 10 uM",-5%
same,activity at 1 µM,"168 GPCRs [18]; CRTH2, Agonist, 1 uM",-5.7%
